Test results as given in patent US9629941B2, “Hydrogel coated scaffold” (CORTICALIS AS, priority 2012, dated 2017).
Where a SMILES comes first, the peptide text is derived from it.

Key:
MC3T3-E1 cells [1] = test: Cell viability: LDH activity in culture media of cells on alginate hydrogels; assay type: cell-based, mouse; settings: 24 h; 50 μg/ml in 2% alginate hydrogel
Description: (§1) The mouse osteoblastic cell line MC3T3-E1 (DSMZ, Braunschweig, Germany) was maintained as previously described (Tiainen H et al., 2011). Before seeding, 24-well culture plates containing crosslinked alginate hydrogels were washed with 750 μl of culture media to remove the excess of CaCl2. After evaluation of the efficiency of cell adhesion on 2% alginate gel using different cell densities, for the final experiments, cells were seeded at a density of 100 000 cells/well. Media was refreshed twice a week. Culture media was collected 24 h after seeding to study cell viability. Cells were harvested at days 14 and 21 to analyze gene expression of adhesion and osteogenic-related markers using real-time RT-PCR. Cultures were routinely observed using light microscopy (Leica DMIRB, Leica Microsystems Wetzlar GmbH, Germany).
The LDH activity determined in the culture media after 24 h was taken as an indicator of membrane leakage or cell lysis. The activity of the cytosolic enzyme was estimated as previously described (Rupert M at al., 2011).

MC3T3-E1 cells [2] = test: Gene expression of cell adhesion and osteoblast markers by real-time RT-PCR, cells on alginate hydrogels; assay type: cell-based, mouse; settings: 50 μg/ml in 2% alginate hydrogel
Description: as §1
Total RNA was isolated using Tripure® (Roche Diagnostics, Mannheim, Germany), according to the manufacturer's protocol. Total RNA was quantified at 260 nm using a Nanodrop spectrophotometer (NanoDrop Technologies, Wilmington, Del., USA).
The same amount of RNA (350 ng) was reverse transcribed to cDNA using high capacity RNA-to-cDNA kit (Applied Biosystems, Foster City, Calif.), according to the protocol of the supplier. Aliquots of each cDNA were frozen (−20° C.) until the PCR reactions were carried out.
Real-time PCR was performed in the Lightcycler 480® (Roche Diagnostics, Mannheim, Germany) using SYBR green detection. Real-time PCR was done for two reference genes (18SrRNA and glyceraldehyde-3-phosphate dehydrogenase (GAPDH)) and ten target genes (integrin alpha 8 (Itga8), integrin beta1 (Itgb1), integrin beta 3 (Itgb3), fibronectin 1 (Fn11), bone morphogenetic protein 2 (Bmp2), collagen type I (Coll-I), bone sialoprotein (Bsp), alkaline phosphatase (Alp), osteocalcin (Oc) and osteopontin (Opn)).
The primer sequences are detailed in Table 2. Reaction conditions and relative quantification have been done as previously described (Tiainen H et al., 2011).

[3] = system: primary human osteoblasts; test: Cytotoxicity assay (LDH activity in culture medium), SIM containing scaffolds; assay type: cell-based; settings: for LDH activity compared to alginate-coated scaffolds without SIM: 14-day period
Description: Cells from passages 7-9 were seeded on scaffolds at a density of 400.000 cells/ml. […] Scaffolds soaked with culture medium were placed in 48-well culture plates. […] The culture medium was replaced every other day. Collected medium was saved for use in cytotoxicity, alkaline phosphatase (ALP) activity and protein expression assays.

[4] = Peptide 2 release profile from TiO2 scaffolds coated with 2% alginate gel (UV-Vis 206 nm); assay type: physicochemical; settings: P2-alginate-coated TiO2 scaffolds, distilled water, 37° C.
Description: TiO2 scaffolds coated with 2% alginate containing peptide 2 (P2-alginate-coated scaffold) were placed into 48-well plates (Nunc GmBh & Co. Kg, Langenselbold, Germany) containing 1 ml distilled water (pH 7.4). In order to mimic cell culture conditions, the samples were agitated on an orbital shaker at 200 rpm (IKA® Schüttler MTS 2, Germany) for 6 h at 37° C. and in humidity conditions (using a distilled water container). Then, samples were maintained at 37° C. in a humidified atmosphere for up to 21 days. At prefixed time points (2d, 5d, 7d, 9d, 12d, 14d, 16d, 19d and 21d), distilled water was collected and fresh distilled water was added into each well. Sample absorbances were analyzed by UV-Vis spectrophotometer (PerkinElmer® Lambda 25 UV/Vis Systems, USA) at a wavelength of 206 nm to determine the amount of peptide released. In parallel, […] scaffolds coated with one layer of 2% alginate gel were used as control to subtract absorbance values obtained from degradation products from alginate.
Relative absorbance units were correlated with the amount of peptide released using a linear standard curve for each time point and the cumulative P2 released was then calculated. The experiment was performed in triplicate.

[5] = Peptide release profile from 2% alginate hydrogel (fluorescence spectroscopy); assay type: physicochemical
Description: To study the peptide release profile, P2 was labeled with FITC. The release of peptide contained into the 2% alginate hydrogel (50 μg/ml) was quantified by fluorescence spectroscopy. First, alginate hydrogels were washed with culture media to remove the excess of CaCl2. Then, 750 μl of cell culture media were added onto peptide loaded alginate hydrogel. The samples were incubated at 37° C. and 5% CO2 for 21 days and cell culture media was changed twice a week. At prefixed time points (24 h, 4 d, 7 d, 11 d, 14 d, 18 d and 21 d), supernatants were collected and analyzed by fluorescence spectroscopy (λ ex 490 nm and λ em 525 nm) to determine the amount of peptide released to the media. The amount of peptide released during the washing step was also measured. The experiment was performed three times, and each sample analyzed in triplicate.
Relative fluorescence units were correlated with the amount of peptide released using a linear standard curve for each time point.

[6] = FITC-labeled P2, 50 μg/ml in 2% alginate hydrogel, culture media, 37° C.

PLVPSSPLVPCCPLVPCCPSPPLPP (Synthetic biomineralizing peptide) [P5, synthetic proline-rich peptide]
toxic effects compared to EMD and to untreated alginate gel (MC3T3-E1 cells [1]): significantly lower toxic effects | Oc mRNA levels (MC3T3-E1 cells [2]; 21 days, vs control): increased | Itga8 mRNA expression (MC3T3-E1 cells [2]; 21 days, vs control alginate hydrogel): increased

CCC(C)(C)C(=O)O[C@H]1C[C@@H](C)C=C2C=C[C@H](C)[C@H](CC[C@@H]3C[C@@H](O)CC(=O)O3)[C@H]21 [SIM, simvastatin]
LDH activity compared to alginate-coated scaffolds without SIM ([3]; 10 nM SIM): Neither of the SIM concentrations caused a significant increase | LDH activity compared to alginate-coated scaffolds without SIM ([3]; 10 μM SIM): Neither of the SIM concentrations caused a significant increase | LDH activity, scaffolds with 10 μM SIM compared to scaffolds with 10 nM SIM ([3]; throughout the 14-day period): higher LDH activity

CC(C)C[C@H](NC(=O)[C@@H]1CCCN1)C(=O)N[C@H](C(=O)N1CCC[C@H]1C(=O)N[C@@H](CO)C(=O)N[C@@H](CCC(N)=O)C(=O)N1CCC[C@H]1C(=O)N[C@@H](CC(C)C)C(=O)N[C@H](C(=O)N1CCC[C@H]1C(=O)N[C@@H](CO)C(=O)N[C@@H](CCC(N)=O)C(=O)N1CCC[C@H]1C(=O)N[C@@H](CC(C)C)C(=O)N[C@H](C(=O)N1CCC[C@H]1C(=O)N[C@@H](CO)C(=O)N[C@@H](CCC(N)=O)C(=O)N1CCC[C@H]1C(=O)N[C@@H](CCC(N)=O)C(=O)N1CCC[C@H]1C(=O)N1CCC[C@H]1C(=O)N[C@@H](CC(C)C)C(=O)N1CCC[C@H]1C(=O)N1CCC[C@H]1C(=O)O)C(C)C)C(C)C)C(C)C [P2] (H-PLVPSQPLVPSQPLVPSQPQPPLPP-OH)
amount of peptide released after 5 days [4]: 9.4 % of the cumulative amount rel | burst release of the peptide during the first 2 days of incubation [4]: 42.8 % of the cumulative amount of P2 released after 21 days | total peptide theoretically contained in the alginate hydrogel not released after 21 days ([5]; FITC-labeled P2, 50 μg/ml in 2% alginate hydrogel, 37° C.): 5.6% | burst release of the peptide during the first 24 h of incubation [5, 6]: 54.67% | peptide slowly released up to 11 days [5, 6]: 25.8% | loaded peptide released during the washing step ([5]; washing of alginate hydrogels with culture media to remove excess CaCl2): 12.7% | cell viability compared to EMD (MC3T3-E1 cells [1]): significantly increased | Expression of Opn (MC3T3-E1 cells [2]; 14 days, vs control): decreased significantly | Fn1 mRNA levels (MC3T3-E1 cells [2]; 14 days, vs control): decreased significantly | Itgb1 mRNA levels (MC3T3-E1 cells [2]; 14 days, vs control): significantly decreased | Itgb3 mRNA levels (MC3T3-E1 cells [2]; 14 days, vs control): decreased significantly | Fn1 mRNA levels (MC3T3-E1 cells [2]; 21 days): no differences were observed | Itgb3 mRNA levels (MC3T3-E1 cells [2]; 21 days): no differences were observed | Bmp2 relative mRNA levels (MC3T3-E1 cells [2]; 21 days, vs EMD): decreased | ALP mRNA levels (MC3T3-E1 cells [2]; 21 days, vs control): significantly decreased

PHQPMQPQPPVHPMQPLPPQPPLPP (Synthetic biomineralizing peptide) [P6, synthetic proline-rich peptide]
Bmp2 relative mRNA levels (MC3T3-E1 cells [2]; 14 days, sentence ends 'compared to EMD'): increased significantly | ALP mRNA levels (MC3T3-E1 cells [2]; 14 days, vs control): significantly decreased | Expression of Opn (MC3T3-E1 cells [2]; 14 days, vs control): decreased significantly | Fn1 mRNA levels (MC3T3-E1 cells [2]; 14 days, vs control): decreased significantly | Itgb1 mRNA levels (MC3T3-E1 cells [2]; 14 days, vs control): significantly decreased | Itgb3 mRNA levels (MC3T3-E1 cells [2]; 14 days, vs control): decreased significantly | Fn1 mRNA levels (MC3T3-E1 cells [2]; 21 days): no differences were observed | Itgb3 mRNA levels (MC3T3-E1 cells [2]; 21 days): no differences were observed | Itgb1 mRNA levels (MC3T3-E1 cells [2]; 21 days, vs EMD): reduced significantly | ALP mRNA levels (MC3T3-E1 cells [2]; 21 days, vs control): significantly decreased | Oc mRNA levels (MC3T3-E1 cells [2]; 21 days, vs control): increased
